# Test results as given in patent US9079876B2, “Imidazole derivatives and preparation method and use thereof” (Beijing Orbiepharm Co., Ltd., priority 2010, dated 2015).
# Experiments:
# [1] = biological target: T1, COX-2 (Canis lupus familiaris, UniProt Q8SPQ9); assay: Dog whole blood in vitro activity assay, COX-2; assay type: cell-based, beagle dog
# T1 construct: in vitro activity study using beagle dog whole blood was conducted; from tissue; host or cells: beagle dog whole blood, stimulated with LPS (by the same method as for human blood)
# T1 sequence (Q8SPQ9 18-604): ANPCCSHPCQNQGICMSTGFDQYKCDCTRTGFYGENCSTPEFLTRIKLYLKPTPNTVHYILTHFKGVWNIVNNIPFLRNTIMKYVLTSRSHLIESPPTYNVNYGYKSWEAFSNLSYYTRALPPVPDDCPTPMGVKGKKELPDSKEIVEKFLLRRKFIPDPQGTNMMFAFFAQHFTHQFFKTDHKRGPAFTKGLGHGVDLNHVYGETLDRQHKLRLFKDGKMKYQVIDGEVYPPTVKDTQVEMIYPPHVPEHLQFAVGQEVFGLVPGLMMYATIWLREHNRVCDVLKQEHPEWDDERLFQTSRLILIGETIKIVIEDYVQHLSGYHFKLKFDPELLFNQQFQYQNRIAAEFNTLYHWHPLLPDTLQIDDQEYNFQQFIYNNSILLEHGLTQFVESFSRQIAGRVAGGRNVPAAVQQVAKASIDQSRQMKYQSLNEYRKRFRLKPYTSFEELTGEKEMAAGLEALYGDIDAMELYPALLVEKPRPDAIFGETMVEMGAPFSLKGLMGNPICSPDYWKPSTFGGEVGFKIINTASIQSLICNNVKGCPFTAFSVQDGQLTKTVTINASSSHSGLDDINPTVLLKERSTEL
# [2] = system: mice tail suspension immobility time; assay: Tail suspension test in mice (anti-depression model); assay type: in vivo, Male Kunming mice
# Experimental: In Vivo Test: Tail Suspension Test in Mice (Evaluation on an Anti-Depression Model)
# Male Kunming mice, approximately 20 g, were randomized into six groups, i.e. normal group, positive drug group (fluoxetine 20 mg/kg), compound 1: group A 5 mg/kg, group B 10 mg/kg, group C 20 mg/kg, and group D 40 mg/kg.
# Single Dose Test: Mice were normally fed for 1 day and allowed to adapt to the environment. Then the mice were fasted (except water) for 16 hours, and were intragastrically administrated with a single dose of the compound. The normal group was intragastrically administrated with an equivalent amount of distilled water. 40 min after the administration, the mice were inverted and fixed to a tail suspension device, and the distance between the head and the desktop was about 30 cm. Immobility time was recorded with an analysis record system, for the latter 4 min within the 6 min recording period, and was used for statistical analysis.
# (§1) Study with Three-Day Consecutive Dosing: Mice were normally fed for 1 day and allowed to adapt to the environment. Then the mice were intragastrically administrated with the test drug for 3 consecutive days (once per day), and the normal group was intragastrically administrated with an equivalent amount of distilled water. The mice were fasted (except water) for 16 hours before the last dosing. 40 min after the last dosing, the mice were inverted and fixed to the tail suspension device, and the distance between the head and the desktop was about 30 cm. Immobility time was recorded with an analysis record system, for the latter 4 min within the 6 min recording period, and was used for statistical analysis.
# as §1, with “with Seven-Day” for “with Three-Day”, “intragastrically dosed” for “intragastrically administrated with the test drug”, “for 7” for “for 3”, “days (once/day),” for “days (once per day),”, “last administration.” for “last dosing.”, “last administration,” for “last dosing,”
# [3] = system: mice forced swimming immobility time; assay: Forced swimming test in mice (anti-depression model); assay type: in vivo, Male Kunming mice
# Experimental: In Vivo Study: The Forced Swimming Test in Mice (Evaluation on Anti-Depression Model)
# Male Kunming mice, approximately 20 g, were randomized into six groups, i.e. normal group, positive drug group (fluoxetine 20 mg/kg), group A (5 mg/kg Compound 1), group B (10 mg/kg Compound 1), group C (20 mg/kg Compound 1), and group D (40 mg/kg Compound 1).
# Single Dose Test: Mice were normally fed for 1 day and allowed to adapt to the environment. Then the mice were fasted (except water) for 16 hours, and were intragastrically administrated with a single dose of the test drug, and the normal group was intragastrically administrated with an equivalent amount of distilled water. 40 min after administration, the mice were placed in forced swimming test device (swimming environment: pool diameter 12.5 cm cylinder, water temperature 25° C. and water depth 10 cm). Mice swam for six minutes, and the immobility time (i.e., the time during which the limbs were immobile, or only the feet were thrashing or paddling) was recorded with an animal behavioral record system, for the latter 4 min within the 6 min recording period, and was used for statistical analysis.
# (§2) Study with Three-Day Consecutive Dosing: Mice were normally fed for 1 day and allowed to adapt to the environment. Then the mice were intragastrically administrated with the test drug consecutively for three days (once per day). The normal group was intragastrically administrated equivalent amount of distilled water. Mice were fasted (except water) for 16 hours before the last dosing. 40 min after the last dosing, the mice were placed in forced swimming test device (swimming environment: pool diameter 12.5 cm cylinder, water temperature 25° C. and water depth 10 cm). Mice swam for six minutes, and the immobility time (i.e., the time during which the limbs were immobile, or only the feet were thrashing or paddling) was recorded with an animal behavioral record system, for the latter 4 min within the 6 min recording period, and was used for statistical analysis.
# as §2, with “Seven-Day” for “Three-Day”, “seven” for “three”
# [4] = 3 days consecutive administration, 10 mg/kg intragastric, in s (unit assumed)
# [5] = 3 days consecutive administration, 20 mg/kg intragastric, in s (unit assumed)
# [6] = 3 days consecutive administration, 40 mg/kg intragastric, in s (unit assumed)
# [7] = 7 days consecutive administration, 5 mg/kg intragastric, 5 mg/kg, in s (unit assumed)
# [8] = 7 days consecutive administration, 10 mg/kg intragastric, in s (unit assumed)
# [9] = 7 days consecutive administration, 20 mg/kg intragastric, in s (unit assumed)
# [10] = 7 days consecutive administration, 40 mg/kg intragastric, in s (unit assumed)
# [11] = single dose, 10 mg/kg intragastric, 40 min after administration, in s (unit assumed)
# [12] = single dose, 20 mg/kg intragastric, 40 min after administration, in s (unit assumed)
# [13] = single dose, 40 mg/kg intragastric, 40 min after administration, in s (unit assumed)
smiles,measurement,setting,value
"CS(=O)(=O)c1ccc(-n2cnc(Cl)c2-c2ccccc2)nc1 [Compound 1, 2-(4-chloro-5-phenyl-1H-imidazol-1-yl)-5-(methylsulfonyl)pyridine]",IC50COX-1/IC50COX-2,[1],83.2
same,IC50,[1]; read-out: IC50 (μg/mL) COX-2 (converted),2.64 µM
same,tail suspension Immobility time,"[2]; 3 days consecutive administration, 5 mg/kg intragastric, in s (unit assumed)",45.36 ± 12.09
same,tail suspension Immobility time,[2]; [4],31.94 ± 8.76
same,tail suspension Immobility time,[2]; [5],33.64 ± 15.78
same,tail suspension Immobility time,[2]; [6],41.36 ± 14.22
same,tail suspension Immobility time,[2]; [7],45.11 ± 16.88
same,tail suspension Immobility time,"[2]; 7 days consecutive administration, 5 mg/kg intragastric, listed as test drug, 5 mg/kg",tendency of reduction in immobility time
same,tail suspension Immobility time,[2]; [8],36.47 ± 15.13
same,tail suspension Immobility time,[2]; [9],29.98 ± 9.87
same,tail suspension Immobility time,[2]; [10],29.70 ± 15.02
same,tail suspension Immobility time,"[2]; single dose, 5 mg/kg intragastric, 40 min after administration, in s (unit assumed)",46.57 ± 16.46
same,tail suspension Immobility time,[2]; [11],47.10 ± 17.93
same,tail suspension Immobility time,[2]; [12],43.25 ± 14.41
same,tail suspension Immobility time,[2]; [13],46.58 ± 15.32
same,forced swimming Immobility time,"[3]; 3 days consecutive administration, 5 mg/kg intragastric, 5 mg/kg",tendency of reduction in forced swimming immobility time
same,forced swimming Immobility time,"[3]; 3 days consecutive administration, 5 mg/kg intragastric, 5 mg/kg, in s (unit assumed)",119.73 ± 24.55
same,forced swimming Immobility time,[3]; [4],91.73 ± 22.08
same,forced swimming Immobility time,[3]; [5],83.12 ± 32.57
same,forced swimming Immobility time,[3]; [6],63.32 ± 30.46
same,forced swimming Immobility time,"[3]; 7 days consecutive administration, 5 mg/kg intragastric, 5 mg/kg",tendency of reduction in forced swimming immobility time
same,forced swimming Immobility time,[3]; [7],102.72 ± 34.07
same,forced swimming Immobility time,[3]; [8],86.40 ± 34.65
same,forced swimming Immobility time,[3]; [9],86.84 ± 30.21
same,forced swimming Immobility time,[3]; [10],83.84 ± 35.50
same,forced swimming Immobility time,"[3]; single dose, 5 mg/kg intragastric, 40 min after administration, 5 mg/kg",tendency of reduction in forced swimming immobility time
same,forced swimming Immobility time,"[3]; single dose, 5 mg/kg intragastric, 40 min after administration, 5 mg/kg, in s (unit assumed)",102.24 ± 27.33
same,forced swimming Immobility time,[3]; [11],92.85 ± 38.81
same,forced swimming Immobility time,[3]; [12],87.55 ± 42.50
same,forced swimming Immobility time,[3]; [13],90.86 ± 39.53
